The record followed here is patent US20180289702A1, “LPA LEVEL REDUCTION FOR TREATING CENTRAL NERVOUS SYSTEM DISORDERS” (priority 2015, published 2018).

The test system of experiment [1] is PRG-1 het mice. In words: mEPSC recordings with HA-130. In kind it is cell-based.
Experiment [2] deals with PRG-1+/− mice. In words: spontaneous postsynaptic currents (sPSC) with HA130. In kind it is cell-based.
Experiment [3] concerns PRG-1+/− mice. As to the kind of experiment: in vivo multi-unit activity (MUA) recordings in S1BF cortex. The note with it: 1 μM applied into the cortex of living PRG-1+/− mice. The text has this: In order to characterize the role of PRG-1 in cortical networks, the inventors then assessed expression of PRG-1 in the cerebral cortex and found strong expression in layer IV of the mouse somatosensory barrel field cortex (FIG. 3A) which was restricted to glutamatergic neurons. […] To understand implications of such a reduced synaptic PRG-1 function in intracortical information processing, the inventors performed multi-channel extracellular recordings in the S1BF cortex of wt and PRG-1^+/- mice in vivo (FIG. 3D). […] This finding points to a change in the cellular E/I balance towards excitation within cortical microcircuitries which has been related to severe behavioral deficits (Yizhar et al., 2011).

Experiment [4] deals with PRG-1+/− mice. In words: double-pulse whisker stimulation model of sensory gating. Type of experiment: in vivo. The conditions noted are these: animals with monoallelic PRG-1-deficiency, ISI 500 ms. The text has this: In addition to analysis of spontaneous cortical network activity, the inventors assessed pre-attentive cortical information processing and measured sensory gating in a double-pulse whisker stimulation model (FIG. 4A). Local field potentials (recorded in the whisker-specific cortical barrel) in response to repetitive single-whisker stimulation elicited larger amplitudes to second stimulus in PRG-1^+/− when compared to wt (S1; S2; ISI=500 ms; FIG. 4B). […] These findings indicate that already loss of one functional allele of prg-1 as present in mutPRG-1 carriers, and thus a reduction of about 50% of functional PRG-1 at the synapse, causes an apparent E/I-imbalance in cortical networks and an altered sensory gating.

For experiment [5], the system named is neuronal hyperexcitability induced by Ketamine. In words: ketamine-induced potentiation of evoked local field potentials (LFPs). Type of experiment: cell-based, mice. The text has this:
This aim was to unravel whether ATX-inhibition is able to revert cortical hyperexcitability and an altered E/I balance independent of the underlying cause. As previously described (Nosyreva E et al. 2013), ketamine application inhibits spontaneous neurotransmission and induces afterwards a potentiation of synaptic responses over time (FIG. 8A).

For `O=C1S/C(=C\c2ccc(OCc3cccc(B(O)O)c3)cc2)C(=O)N1Cc1ccc(F)cc1` [HA130, (Z)-3-((4-((3-(4-Fluorobenzyl)-2,4-dioxo-1,3-thiazolan-5-yliden)-methyl)phenoxy)methyl)benzeneboronic acid], the “mEPSCs (spontaneous glutamatergic release at presynaptic terminals)” value in experiment [1] (10 μM (FIG. 12B), genotype not stated in the panel legend) is listed as “decreased”. The mEPSCs result in experiment [1] (10 μM, PRG-1 het mice (FIG. 12A)) is reported as “decreased”. In addition, the “spontaneous postsynaptic currents (sPSC)” value in experiment [2] (1 μM) and in experiment [2] (10 μM) was “significant decrease” each time. In experiment [3], the “number of multi-unit activity (MUA) bursts” value was “significantly decreased”. Also, the S2/S1-ratio result in experiment [4] is reported as “reduced”. The sensory gating entry in experiment [4] is listed as “significantly restored”. Besides, the “ketamine-induced potentiation (evoked LFPs)” value in experiment [5] (10 μM during ketamine wash out / potentiation phase) is “significantly decreased”. Moreover, in experiment [5] (after HA-130 treatment), the “ketamine-induced potentiation, input-output curves” value was “reverted to baseline values”.
